Laboratory results from PubChem BioAssay AID1963959 (Molecular Pharmacology Branch, DTP, NCI, 2024).

Tested on: T-47D spheroids with HUVEC/MSC, viability
Assay: Anticancer human tumor T-47D cell line growth inhibition [PI3K];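 note: spheroids exposed to agents for seven days before reading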;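 for viability, T/C: percent of DMSO vehicle control luminescence so 100% = untreated growth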
Conditions: for IC50: curve of first compound; for viability, T/C: stronger effect = lower value
Outline: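 Multi-cell spheroids combine tumor cells with HUVEC and human MSCs, treated with targeted agents alone or with inavolisib, alpelisib, duvelisib or copanlisib. Concentrations fall in half-log steps from at or near clinical Cmax, or from 10 microM where Cmax is unknown; viability read-out.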

[1] = second compound 0.0316 µM, first compound 0.0316 µM
[2] = second compound 0.0316 µM, first compound 0.1 µM
[3] = second compound 0.0316 µM, first compound 0.316 µM
[4] = second compound 0.0316 µM, first compound 1 µM
[5] = second compound 0.0316 µM, first compound 3.16 µM
[6] = second compound 0.0316 µM, first compound 10 µM
[7] = second compound 0.1 µM, first compound 0.0316 µM
[8] = second compound 0.1 µM, first compound 0.1 µM
[9] = second compound 0.1 µM, first compound 0.316 µM
[10] = second compound 0.1 µM, first compound 1 µM
[11] = second compound 0.1 µM, first compound 3.16 µM
[12] = second compound 0.1 µM, first compound 10 µM
[13] = second compound 0.316 µM, first compound 0.0316 µM
[14] = second compound 0.316 µM, first compound 0.1 µM
[15] = second compound 0.316 µM, first compound 0.316 µM
[16] = second compound 0.316 µM, first compound 1 µM
[17] = second compound 0.316 µM, first compound 3.16 µM
[18] = second compound 0.316 µM, first compound 10 µM
[19] = second compound 1 µM, first compound 0.0316 µM
[20] = second compound 1 µM, first compound 0.1 µM
[21] = second compound 1 µM, first compound 0.316 µM
[22] = second compound 1 µM, first compound 1 µM
[23] = second compound 1 µM, first compound 3.16 µM
[24] = second compound 1 µM, first compound 10 µM
[25] = second compound 3.16 µM, first compound 0.0316 µM
[26] = second compound 3.16 µM, first compound 0.1 µM
[27] = second compound 10 µM, first compound 0.0316 µM
[28] = second compound 10 µM, first compound 0.1 µM
[29] = second compound 0.00316 µM, first compound 0.0316 µM
[30] = second compound 0.00316 µM, first compound 0.1 µM
[31] = second compound 0.00316 µM, first compound 0.316 µM
[32] = second compound 0.00316 µM, first compound 1 µM
[33] = second compound 0.00316 µM, first compound 3.16 µM
[34] = second compound 0.00316 µM, first compound 10 µM
[35] = second compound 0.01 µM, first compound 0.0316 µM
[36] = second compound 0.01 µM, first compound 0.1 µM
[37] = second compound 0.01 µM, first compound 0.316 µM
[38] = second compound 0.01 µM, first compound 1 µM
[39] = second compound 0.01 µM, first compound 3.16 µM
[40] = second compound 0.01 µM, first compound 10 µM

Structure (SMILES): CC(C)NCC(C(=O)N1CCN(c2ncnc3c2C(C)CC3O)CC1)c1ccc(Cl)cc1 (stereo not drawn) + CC(Nc1ncnc2nc[nH]c12)c1cc2cccc(Cl)c2c(=O)n1-c1ccccc1
- IC50 (second compound 0.0316 µM): > 10 µM
- IC50 (second compound 0.1 µM): > 10 µM
- IC50 (second compound 0.316 µM): > 10 µM
- IC50 (second compound 1 µM): > 10 µM
- IC50 (second compound 3.16 µM): > 10 µM
- IC50 (second compound 10 µM): > 10 µM
- viability, T/C [1]: 107%
- viability, T/C [2]: 73.4%
- viability, T/C [3]: 91.6%
- viability, T/C [4]: 81.4%
- viability, T/C [5]: 59.9%
- viability, T/C [6]: 57.2%
- viability, T/C [7]: 111%
- viability, T/C [8]: 75.5%
- viability, T/C [9]: 88.5%
- viability, T/C [10]: 66.2%
- viability, T/C [11]: 60.2%
- viability, T/C [12]: 63.6%
- viability, T/C [13]: 98.3%
- viability, T/C [14]: 78.6%
- viability, T/C [15]: 77.4%
- viability, T/C [16]: 65.9%
- viability, T/C [17]: 65.2%
- viability, T/C [18]: 62.2%
- viability, T/C [19]: 79.8%
- viability, T/C [20]: 104%
- viability, T/C [21]: 90.1%
- viability, T/C [22]: 63.4%
- viability, T/C [23]: 61.9%
- viability, T/C [24]: 60.4%
- viability, T/C [25]: 98.7%
- viability, T/C [26]: 84.4%
- viability, T/C (second compound 3.16 µM, first compound 0.316 µM): 81.7%
- viability, T/C (second compound 3.16 µM, first compound 1 µM): 87.5%
- viability, T/C (second compound 3.16 µM, first compound 3.16 µM): 55.3%
- viability, T/C (second compound 3.16 µM, first compound 10 µM): 62.9%
- viability, T/C [27]: 93.5%
- viability, T/C [28]: 93.1%
- viability, T/C (second compound 10 µM, first compound 0.316 µM): 87.3%
- viability, T/C (second compound 10 µM, first compound 1 µM): 74%
- viability, T/C (second compound 10 µM, first compound 3.16 µM): 67.3%
- viability, T/C (second compound 10 µM, first compound 10 µM): 57.9%

Structure (SMILES): Cn1ncnc1[C@H]1c2n[nH]c(=O)c3cc(F)cc(c23)N[C@@H]1c1ccc(F)cc1 + Cc1nc(NC(=O)N2CCCC2C(N)=O)sc1-c1ccnc(C(C)(C)C(F)(F)F)c1
- IC50 (second compound 0.0316 µM): > 0.1 µM
- IC50 (second compound 0.1 µM): > 0.1 µM
- IC50 (second compound 0.316 µM): > 0.1 µM
- IC50 (second compound 1 µM): > 0.1 µM
- IC50 (second compound 3.16 µM): > 0.1 µM
- IC50 (second compound 10 µM): < 0.000316 µM
- viability, T/C (second compound 0.0316 µM, first compound 0.000316 µM): 105%
- viability, T/C (second compound 0.0316 µM, first compound 0.001 µM): 103%
- viability, T/C (second compound 0.0316 µM, first compound 0.00316 µM): 99%
- viability, T/C (second compound 0.0316 µM, first compound 0.01 µM): 99.9%
- viability, T/C [1]: 86.8%
- viability, T/C [2]: 98.8%
- viability, T/C (second compound 0.1 µM, first compound 0.000316 µM): 106%
- viability, T/C (second compound 0.1 µM, first compound 0.001 µM): 96.3%
- viability, T/C (second compound 0.1 µM, first compound 0.00316 µM): 95.5%
- viability, T/C (second compound 0.1 µM, first compound 0.01 µM): 106%
- viability, T/C [7]: 99.5%
- viability, T/C [8]: 86.7%
- viability, T/C (second compound 0.316 µM, first compound 0.000316 µM): 105%
- viability, T/C (second compound 0.316 µM, first compound 0.001 µM): 97.5%
- viability, T/C (second compound 0.316 µM, first compound 0.00316 µM): 105%
- viability, T/C (second compound 0.316 µM, first compound 0.01 µM): 87%
- viability, T/C [13]: 94.5%
- viability, T/C [14]: 86.5%
- viability, T/C (second compound 1 µM, first compound 0.000316 µM): 101%
- viability, T/C (second compound 1 µM, first compound 0.001 µM): 89.3%
- viability, T/C (second compound 1 µM, first compound 0.00316 µM): 85.1%
- viability, T/C (second compound 1 µM, first compound 0.01 µM): 89.4%
- viability, T/C [19]: 87.7%
- viability, T/C [20]: 90.5%
- viability, T/C (second compound 3.16 µM, first compound 0.000316 µM): 65.1%
- viability, T/C (second compound 3.16 µM, first compound 0.001 µM): 70.8%
- viability, T/C (second compound 3.16 µM, first compound 0.00316 µM): 63.4%
- viability, T/C (second compound 3.16 µM, first compound 0.01 µM): 63.6%
- viability, T/C [25]: 71.5%
- viability, T/C [26]: 69.2%
- viability, T/C (second compound 10 µM, first compound 0.000316 µM): 39%
- viability, T/C (second compound 10 µM, first compound 0.001 µM): 34.8%
- viability, T/C (second compound 10 µM, first compound 0.00316 µM): 36.8%
- viability, T/C (second compound 10 µM, first compound 0.01 µM): 34.1%
- viability, T/C [27]: 32.9%
- viability, T/C [28]: 38.9%

Structure (SMILES): CC(C)NCC(C(=O)N1CCN(c2ncnc3c2C(C)CC3O)CC1)c1ccc(Cl)cc1 (stereo not drawn) + CC(Nc1ccc2c(c1)OCCn1cc(N3C(=O)OCC3C(F)F)nc1-2)C(N)=O
- IC50 (second compound 0.00316 µM): 8.76 µM
- IC50 (second compound 0.01 µM): > 10 µM
- IC50 (second compound 0.0316 µM): > 10 µM
- IC50 (second compound 0.1 µM): 3.89 µM
- IC50 (second compound 0.316 µM): 2.42 µM
- IC50 (second compound 1 µM): 0.0626 µM
- viability, T/C [29]: 109%
- viability, T/C [30]: 96.1%
- viability, T/C [31]: 82.7%
- viability, T/C [32]: 80.5%
- viability, T/C [33]: 60.5%
- viability, T/C [34]: 48%
- viability, T/C [35]: 94.5%
- viability, T/C [36]: 94.2%
- viability, T/C [37]: 91%
- viability, T/C [38]: 73.6%
- viability, T/C [39]: 66.6%
- viability, T/C [40]: 59%
- viability, T/C [1]: 102%
- viability, T/C [2]: 95.5%
- viability, T/C [3]: 84.7%
- viability, T/C [4]: 68.5%
- viability, T/C [5]: 53.7%
- viability, T/C [6]: 51.6%
- viability, T/C [7]: 94.1%
- viability, T/C [8]: 81.2%
- viability, T/C [9]: 75.7%
- viability, T/C [10]: 59.3%
- viability, T/C [11]: 51.8%
- viability, T/C [12]: 43.6%
- viability, T/C [13]: 63.2%
- viability, T/C [14]: 64%
- viability, T/C [15]: 56.7%
- viability, T/C [16]: 53.5%
- viability, T/C [17]: 50.1%
- viability, T/C [18]: 41.6%
- viability, T/C [19]: 51.7%
- viability, T/C [20]: 46.8%
- viability, T/C [21]: 52.2%
- viability, T/C [22]: 41.4%
- viability, T/C [23]: 42.3%
- viability, T/C [24]: 44.3%

Structure (SMILES): Cn1ncc(Cl)c1-c1cc(C(=O)NC(CN)Cc2cccc(F)c2)sc1Cl (stereo not drawn) + COc1c(OCCCN2CCOCC2)ccc2c3n(c(=NC(=O)c4cnc(N)nc4)nc12)CCN3
- IC50 (second compound 0.00316 µM): > 10 µM
- IC50 (second compound 0.01 µM): > 10 µM
- IC50 (second compound 0.0316 µM): > 10 µM
- IC50 (second compound 0.1 µM): < 0.0316 µM
- IC50 (second compound 0.316 µM): < 0.0316 µM
- IC50 (second compound 1 µM): < 0.0316 µM
- viability, T/C [29]: 105%
- viability, T/C [30]: 102%
- viability, T/C [31]: 82.3%
- viability, T/C [32]: 77.4%
- viability, T/C [33]: 66.2%
- viability, T/C [34]: 77.7%
- viability, T/C [35]: 108%
- viability, T/C [36]: 99.8%
- viability, T/C [37]: 80.5%
- viability, T/C [38]: 70.3%
- viability, T/C [39]: 70%
- viability, T/C [40]: 77.7%
- viability, T/C [1]: 94.4%
- viability, T/C [2]: 70.6%
- viability, T/C [3]: 61.5%
- viability, T/C [4]: 65%
- viability, T/C [5]: 65.1%
- viability, T/C [6]: 73.2%
- viability, T/C [7]: 48.8%
- viability, T/C [8]: 46.5%
- viability, T/C [9]: 39.4%
- viability, T/C [10]: 39.2%
- viability, T/C [11]: 55.7%
- viability, T/C [12]: 48.7%
- viability, T/C [13]: 17.2%
- viability, T/C [14]: 20.4%
- viability, T/C [15]: 19.1%
- viability, T/C [16]: 19.6%
- viability, T/C [17]: 24.3%
- viability, T/C [18]: 39.5%
- viability, T/C [19]: 7.39%
- viability, T/C [20]: 7.86%
- viability, T/C [21]: 6.72%
- viability, T/C [22]: 6.88%
- viability, T/C [23]: 15.6%
- viability, T/C [24]: 10.9%
